Measurements from US12679878B2, “CRF2 receptor agonists and their use in therapy” (SANOFI, priority 2020, dated 2026).
Read-outs that look alike come from different tables or passages of the source. Starred links: 1 amine or outer side, 2 acyl side, 3 side chain; linkers in the order of their positions; H or OH if unused. Residues, ends and D or L forms follow the SMILES beside them. Groups on a side chain read outwards from the residue. *: point of attachment. C20 diacid = O=C(O)CCCCCCCCCCCCCCCCCCC(=O)*; C18 diacid = O=C(O)CCCCCCCCCCCCCCCCC(=O)*; γGlu = O=C(O)[C@H](CCC(=O)[*:2])N[*:1]; AEEA = NCCOCCOCC(=O)O

Key:
Type in all cases: cell-based
[1] = molecular target: T1, CRF1R receptor (Homo sapiens, UniProt P34998); test: cAMP activity at anti-target CRF1R, CRF1R-overexpression CHO cell line (Example 9)
T1 construct: host or cells: CHO-K1 clone 2
T1 sequence (P34998 24-415): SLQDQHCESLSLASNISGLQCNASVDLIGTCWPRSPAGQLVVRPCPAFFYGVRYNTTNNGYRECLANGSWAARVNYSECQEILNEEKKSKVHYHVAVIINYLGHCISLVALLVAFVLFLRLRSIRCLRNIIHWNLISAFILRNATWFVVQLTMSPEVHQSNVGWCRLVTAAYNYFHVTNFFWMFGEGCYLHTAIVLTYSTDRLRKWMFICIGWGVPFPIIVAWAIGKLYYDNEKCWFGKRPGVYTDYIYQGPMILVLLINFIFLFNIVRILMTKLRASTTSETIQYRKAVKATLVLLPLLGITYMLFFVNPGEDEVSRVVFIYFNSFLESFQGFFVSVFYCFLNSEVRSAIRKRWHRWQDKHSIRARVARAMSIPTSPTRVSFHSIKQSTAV
Procedure, shortened: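 Using thawed CRF1R-overexpressing CHO cells at 2000 per well, compound is applied for 30 min at RT in HBSS/HEPES buffer with IBMX. Cellular cAMP content is determined via HTRF, and percent activity is calculated against 1000 nM UCN2 defined as 100%.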

[2] = molecular target: T2, human CRF2α receptor (Homo sapiens, UniProt Q13324); test: cAMP agonism at human CRF2 α receptor in TeloHEAC cells (Example 7); conditions: cAMP HTRF, TeloHEAC cells stably expressing human CRF2 α
T2 construct: expressed in transfected cells; host or cells: TeloHEAC
T2 sequence (Q13324 1-411): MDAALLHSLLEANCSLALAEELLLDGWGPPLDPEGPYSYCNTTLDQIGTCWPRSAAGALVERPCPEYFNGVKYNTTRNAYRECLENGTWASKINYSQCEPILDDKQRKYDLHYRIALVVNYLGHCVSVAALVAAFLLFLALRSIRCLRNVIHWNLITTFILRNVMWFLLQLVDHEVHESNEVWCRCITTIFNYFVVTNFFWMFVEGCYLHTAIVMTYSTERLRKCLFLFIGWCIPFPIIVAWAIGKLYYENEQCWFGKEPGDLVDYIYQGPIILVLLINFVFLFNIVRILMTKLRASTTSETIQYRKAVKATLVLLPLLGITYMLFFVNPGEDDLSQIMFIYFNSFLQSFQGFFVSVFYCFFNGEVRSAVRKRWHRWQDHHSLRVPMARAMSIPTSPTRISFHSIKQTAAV
Procedure, shortened: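 Cryopreserved cells are thawed, washed and resuspended in IBMX-containing (2 mM) HEPES-buffered HBSS with or without 0.1% HSA. Compound incubation runs 30 min at room temperature with 2000 cells per well, then cAMP is measured by time-resolved FRET. Potency is expressed as EC50, efficacy relative to urocortin 2 at 1000 nM.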

[3] = tested on: rat CRF2R α receptor; test: cAMP agonism at rat CRF2R α receptor in A7R5 rat aortic smooth muscle cells (Example 8); conditions: cAMP HTRF, A7R5 rat aortic smooth muscle cell line, 0% HSA
Procedure, shortened: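 Potency (EC50) is the concentration reaching half-maximal activation, with responses scaled so that 1000 nM urocortin 2 equals 100%. Intracellular cAMP was quantified by homogeneous time-resolved fluorescence at 665/620 nm, 1 h after lysis-buffer reagents. Compound stimulation lasted 30 min at room temperature on 2000 IBMX-treated (2 mM) cells per well in HEPES-buffered HBSS.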

[4] = 0% HSA, read-out: EC50 [nM], 0% HSA
[5] = 0.1% HSA, read-out: EC50 [nM], 0.1% HSA

Question: With `CC[C@H](C)[C@H](NC(=O)[C@H](CCC(N)=O)NC(=O)[C@H](CCCCNC(=O)COCCOCCNC(=O)COCCOCCNC(=O)CC[C@H](NC(=O)CCCCCCCCCCCCCCCCC(=O)O)C(=O)O)NC(=O)[C@@H](NC(=O)[C@H](CCCCN)NC(=O)[C@@H](NC(=O)[C@@H]1CCCN1C(=O)[C@@H](NC(=O)[C@H](CC(=O)O)NC(=O)[C@H](CC(C)C)NC(=O)[C@H](CO)NC(=O)[C@H](CC(C)C)NC(=O)[C@@H](NC(=O)[C@@H](N)Cc1ccccc1)[C@@H](C)O)C(C)C)[C@@H](C)O)[C@@H](C)CC)C(=O)N[C@@H](CC(C)C)C(=O)N[C@@H](CC(C)C)C(=O)N[C@@H](CCCCN)C(=O)N[C@@H](CCC(N)=O)C(=O)N[C@@H](CCC(N)=O)C(=O)N[C@@H](CCCCN)C(=O)N[C@@H](CCC(N)=O)C(=O)N[C@@H](CCCCN)C(=O)N[C@@H](CCCCN)C(=O)N[C@@H](CCC(=O)O)C(=O)N[C@@H](CCCNC(=N)N)C(=O)N[C@@H](CCC(N)=O)C(=O)N[C@@H](CCC(N)=O)C(=O)N[C@@H](C)C(=O)N[C@@H](CCC(=O)O)C(=O)N[C@H](C(=O)N[C@@H](CC(N)=O)C(=O)N[C@@H](CCCCN)C(=O)N[C@@H](CCC(N)=O)C(=O)N[C@@H](CC(C)C)C(=O)N[C@@H](CC(C)C)C(=O)N[C@@H](CCC(=O)O)C(=O)N[C@@H](CCCNC(=N)N)C(=O)N[C@H](C(N)=O)C(C)C)[C@@H](C)O` [compound 53] (H-FTLSLDVPTKIK([AEEA-AEEA-γGlu-C18 diacid])QILLKQQKQKKERQQAETNKQLLERV-NH2) as the molecule, how does the EC50 ([1]; 0% HSA, CRF1R-overexpression CHO cell line) read?
Answer: > 1000 nM

Question: And the Emax ([1]; CRF1R-overexpression CHO cell line, read-out: Emax (%))?
Answer: 4.14%

Question: And the EC50 [2, 4]?
Answer: 1.01 nM

Question: What about the EC50 [2, 5] of the same molecule?
Answer: 55.1 nM

Question: And the EC50 [3]?
Answer: 1.32 nM

Question: Which results are given for `CC[C@H](C)[C@H](NC(=O)[C@H](CCC(N)=O)NC(=O)[C@H](CCCCNC(=O)COCCOCCNC(=O)COCCOCCNC(=O)CC[C@H](NC(=O)CCCCCCCCCCCCCCCCC(=O)O)C(=O)O)NC(=O)[C@H](CC(C)C)NC(=O)[C@H](CCCCN)NC(=O)[C@@H](NC(=O)[C@@H]1CCCN1C(=O)[C@@H](NC(=O)[C@H](CC(=O)O)NC(=O)[C@H](CC(C)C)NC(=O)[C@H](CO)NC(=O)[C@H](CC(C)C)NC(=O)[C@@H](NC(=O)[C@@H](N)Cc1ccccc1)[C@@H](C)O)C(C)C)[C@@H](C)CC)C(=O)N[C@@H](CC(C)C)C(=O)N[C@@H](CC(C)C)C(=O)N[C@@H](CCCCN)C(=O)N[C@@H](CCC(N)=O)C(=O)N[C@@H](CCC(N)=O)C(=O)N[C@@H](CCCCN)C(=O)N[C@@H](CCC(N)=O)C(=O)N[C@@H](CCCCN)C(=O)N[C@@H](CCCCN)C(=O)N[C@@H](CCC(=O)O)C(=O)N[C@@H](CCCNC(=N)N)C(=O)N[C@@H](CCC(N)=O)C(=O)N[C@@H](CCC(N)=O)C(=O)N[C@@H](C)C(=O)N[C@@H](CCC(=O)O)C(=O)N[C@H](C(=O)N[C@@H](CC(N)=O)C(=O)N[C@H](C(=O)N[C@@H](CCC(N)=O)C(=O)N[C@@H](CC(C)C)C(=O)N[C@@H](CC(C)C)C(=O)N[C@@H](CCC(=O)O)C(=O)N[C@@H](CCCNC(=N)N)C(=O)N[C@H](C(N)=O)C(C)C)C(C)C)[C@@H](C)O` [compound 54] (H-FTLSLDVPIKLK([AEEA-AEEA-γGlu-C18 diacid])QILLKQQKQKKERQQAETNVQLLERV-NH2)?
Answer: Emax ([1]; CHO): 2.72%; EC50 [2, 4]: 0.57 nM; EC50 [2, 5]: 24.5 nM; EC50 [3]: 1.51 nM

Question: How did the Emax ([1]; CHO) turn out when `CC[C@H](C)[C@H](NC(=O)[C@H](CCC(N)=O)NC(=O)[C@H](CCCCNC(=O)COCCOCCNC(=O)COCCOCCNC(=O)CC[C@H](NC(=O)CCCCCCCCCCCCCCCCCCC(=O)O)C(=O)O)NC(=O)[C@H](CC(C)C)NC(=O)[C@H](CCCCN)NC(=O)[C@@H](NC(=O)[C@@H]1CCCN1C(=O)[C@@H](NC(=O)[C@H](CC(=O)O)NC(=O)[C@H](CC(C)C)NC(=O)[C@H](CO)NC(=O)[C@H](CC(C)C)NC(=O)[C@@H](NC(=O)[C@@H](N)Cc1ccccc1)[C@@H](C)O)C(C)C)[C@@H](C)CC)C(=O)N[C@@H](CC(C)C)C(=O)N[C@@H](CC(C)C)C(=O)N[C@@H](CCCCN)C(=O)N[C@@H](CCC(N)=O)C(=O)N[C@@H](CCC(N)=O)C(=O)N[C@@H](CCCCN)C(=O)N[C@@H](CCC(N)=O)C(=O)N[C@@H](CCCCN)C(=O)N[C@@H](CCCCN)C(=O)N[C@@H](CCC(=O)O)C(=O)N[C@@H](CCCNC(=N)N)C(=O)N[C@@H](CCC(N)=O)C(=O)N[C@@H](CCC(N)=O)C(=O)N[C@@H](C)C(=O)N[C@@H](CCC(=O)O)C(=O)N[C@H](C(=O)N[C@@H](CC(N)=O)C(=O)N[C@H](C(=O)N[C@@H](CCC(N)=O)C(=O)N[C@@H](CC(C)C)C(=O)N[C@@H](CC(C)C)C(=O)N[C@@H](CCC(=O)O)C(=O)N[C@@H](CCCNC(=N)N)C(=O)N[C@H](C(N)=O)C(C)C)C(C)C)[C@@H](C)O` [compound 62] (H-FTLSLDVPIKLK([AEEA-AEEA-γGlu-C20 diacid])QILLKQQKQKKERQQAETNVQLLERV-NH2) was run?
Answer: 2.28%

Question: What about the EC50 [2, 4] of the same molecule?
Answer: 0.8 nM

Question: And the EC50 [3]?
Answer: 2.9 nM
